ChEMBL document CHEMBL3526145, “Metabolism, excretion, and pharmacokinetics of ((3,3-difluoropyrrolidin-1-yl)((2S,4S)-4-(4-(pyrimidin-2-yl)piperazin-1-yl)pyrrolidin-2-yl)methanone, a dipeptidyl peptidase inhibitor, in rat, dog and human” (Drug Metab Dispos, 2012)

Experiments:
[1] = Drug metabolism in bile of bile duct-cannulated male Sprague-Dawley rat assessed as PF-00734200 level at 5 mg/kg, po administered as single dose by LC-MS/MS method; assay type: ADME, organism-based; set-up: dose 5 mg/kg, route oral; settings: in vivo
[2] = Drug excretion in beagle dog urine at 5 mg/kg, po administered as single dose; assay type: ADME, organism-based, Canis lupus familiaris; set-up: dose 5 mg/kg, route oral; settings: read-out: Drug excretion
[3] = Drug metabolism in bile of bile duct-cannulated female Sprague-Dawley rat assessed as PF-00734200 level at 5 mg/kg, po administered as single dose by LC-MS/MS method; assay type: ADME, organism-based; set-up: dose 5 mg/kg, route oral; settings: in vivo
Homo sapiens [4] = test: Cmax in human at […], po administered as single dose; assay type: ADME, organism-based; set-up: route oral; settings: in vivo
Homo sapiens [5] = test: AUC (0 to infinity) in human at […], po administered as single dose; assay type: ADME, organism-based, Plasma; set-up: time infinity, route oral; settings: in vivo
[6] = Drug excretion in beagle dog feces at 5 mg/kg, po administered as single dose; assay type: ADME, organism-based, Canis lupus familiaris; set-up: dose 5 mg/kg, route oral; settings: faeces, read-out: Drug excretion
[7] = Drug excretion in Sprague-Dawley rat urine at 5 mg/kg, po administered as single dose; assay type: ADME, organism-based; set-up: dose 5 mg/kg, route oral; settings: read-out: Drug excretion
[8] = Drug excretion in human feces at […], po administered as single dose; assay type: ADME, organism-based; set-up: route oral; settings: faeces, read-out: Drug excretion
[9] = Drug recovery in Sprague-Dawley rat at 5 mg/kg, po administered as single dose; assay type: ADME, organism-based; set-up: dose 5 mg/kg, route oral; settings: in vivo, read-out: Drug recovery
[10] = Drug excretion in human urine at […], po administered as single dose; assay type: ADME, organism-based; set-up: route oral; settings: read-out: Drug excretion
[11] = Drug recovery in beagle dog at 5 mg/kg, po administered as single dose; assay type: ADME, organism-based, Canis lupus familiaris; set-up: dose 5 mg/kg, route oral; settings: in vivo, read-out: Drug recovery
[12] = Drug excretion in Sprague-Dawley rat feces at 5 mg/kg, po administered as single dose; assay type: ADME, organism-based; set-up: dose 5 mg/kg, route oral; settings: faeces, read-out: Drug excretion
[13] = Drug recovery in bile of bile duct-cannulated Sprague-Dawley rat at 5 mg/kg, po administered as single dose by LC-MS/MS method; assay type: ADME, organism-based; set-up: dose 5 mg/kg, route oral; settings: read-out: Drug recovery
Homo sapiens [14] = test: AUC (0 to 168 hrs) in human at […], po administered as single dose; assay type: ADME, organism-based, Plasma; set-up: time < 168 hr, route oral; settings: in vivo
[15] = Drug recovery in human at […], po administered as single dose; assay type: ADME, organism-based; set-up: route oral; settings: in vivo, read-out: Drug recovery
[16] = Retention time of the compound by HPLC method; assay type: physicochemical
[17] = Drug level in urine of beagle dog treated with [14C]PF-00734200 at 5 mg/kg, po administered as single dose by LC-MS/MS method; assay type: ADME, organism-based, Canis lupus familiaris; set-up: dose 5 mg/kg, route oral; settings: in vivo
[18] = Drug level in urine of Sprague-Dawley rat treated with [14C]PF-00734200 at 5 mg/kg, po administered as single dose by LC-MS/MS method; assay type: ADME, organism-based; set-up: dose 5 mg/kg, route oral; settings: in vivo
Rattus norvegicus = test: Total drug level in Sprague-Dawley rat treated with [14C]PF-00734200 assessed as total radio activity at 5 mg/kg, po administered as single dose […]; assay type: ADME, organism-based; set-up: dose 5 mg/kg, route oral; settings: in vivo
Plasma [19] = test: Drug level in beagle dog plasma treated with [14C]PF-00734200 at 5 mg/kg, po administered as single dose by LC-MS/MS method; assay type: ADME, organism-based, Canis lupus familiaris; set-up: dose 5 mg/kg, route oral; settings: in vivo
Canis familiaris = test: Total drug level in beagle dog treated with [14C]PF-00734200 assessed as total radio activity at 5 mg/kg, po administered as single dose […]; assay type: ADME, organism-based, Canis lupus familiaris; set-up: dose 5 mg/kg, route oral; settings: in vivo
Plasma [20] = test: Drug level in Sprague-Dawley rat plasma treated with [14C]PF-00734200 at 5 mg/kg, po administered as single dose by LC-MS/MS method; assay type: ADME, organism-based; set-up: dose 5 mg/kg, route oral; settings: in vivo
[21] = Drug level in bile of bile duct-cannulated Sprague-Dawley rat treated with [14C]PF-00734200 at 5 mg/kg, po administered as single dose by LC-MS/MS method; assay type: ADME, organism-based; set-up: dose 5 mg/kg, route oral; settings: in vivo
Serum = test: Drug level in human serum treated with [14C]PF-00734200 at […], po administered as single dose by LC-MS/MS method; assay type: ADME, organism-based; set-up: route oral; settings: in vivo
[22] = Drug level in urine of human treated with [14C]PF-00734200 at […], po administered as single dose by LC-MS/MS method; assay type: ADME, organism-based; set-up: route oral; settings: in vivo
Homo sapiens [23] = test: Total drug level in human treated with [14C]PF-00734200 assessed as total radio activity at […], po administered as single dose […]; assay type: ADME, organism-based; set-up: route oral; settings: in vivo
[24] = Drug level in feces of beagle dog treated with [14C]PF-00734200 at 5 mg/kg, po administered as single dose by LC-MS/MS method; assay type: ADME, organism-based, Canis lupus familiaris; set-up: dose 5 mg/kg, route oral; settings: in vivo
[25] = Drug level in feces of human treated with [14C]PF-00734200 at […], po administered as single dose by LC-MS/MS method; assay type: ADME, organism-based; set-up: route oral; settings: in vivo
Cytochrome P450 3A4 = Cytochrome P450 3A4 (Homo sapiens, UniProt P08684); test: Drug level assessed as human CYP3A4-mediated compound formation from PF-00734200 by LC-MS/MS method; assay type: ADME; settings: recombinant enzyme
Chain of Cytochrome P450 3A4 (P08684 whole entry): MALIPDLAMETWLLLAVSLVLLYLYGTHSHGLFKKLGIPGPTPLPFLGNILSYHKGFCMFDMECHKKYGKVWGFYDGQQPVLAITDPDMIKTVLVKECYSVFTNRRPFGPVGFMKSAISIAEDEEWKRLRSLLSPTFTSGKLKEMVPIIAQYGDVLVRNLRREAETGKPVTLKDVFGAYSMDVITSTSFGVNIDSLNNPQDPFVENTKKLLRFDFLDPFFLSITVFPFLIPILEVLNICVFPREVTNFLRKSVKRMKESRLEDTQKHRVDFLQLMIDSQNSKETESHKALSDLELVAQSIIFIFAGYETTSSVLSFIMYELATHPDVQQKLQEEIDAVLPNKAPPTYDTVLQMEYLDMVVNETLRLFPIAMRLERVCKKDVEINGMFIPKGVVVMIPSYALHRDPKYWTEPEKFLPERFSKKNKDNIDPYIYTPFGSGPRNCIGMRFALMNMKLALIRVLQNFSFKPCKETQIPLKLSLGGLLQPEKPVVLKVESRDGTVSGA

Cytochrome P450 2D6 = Cytochrome P450 2D6 (Homo sapiens, UniProt P10635); test: Drug level assessed as human CYP2D6-mediated compound formation from PF-00734200 by LC-MS/MS method; assay type: ADME; settings: recombinant enzyme
Chain of Cytochrome P450 2D6 (P10635 whole entry): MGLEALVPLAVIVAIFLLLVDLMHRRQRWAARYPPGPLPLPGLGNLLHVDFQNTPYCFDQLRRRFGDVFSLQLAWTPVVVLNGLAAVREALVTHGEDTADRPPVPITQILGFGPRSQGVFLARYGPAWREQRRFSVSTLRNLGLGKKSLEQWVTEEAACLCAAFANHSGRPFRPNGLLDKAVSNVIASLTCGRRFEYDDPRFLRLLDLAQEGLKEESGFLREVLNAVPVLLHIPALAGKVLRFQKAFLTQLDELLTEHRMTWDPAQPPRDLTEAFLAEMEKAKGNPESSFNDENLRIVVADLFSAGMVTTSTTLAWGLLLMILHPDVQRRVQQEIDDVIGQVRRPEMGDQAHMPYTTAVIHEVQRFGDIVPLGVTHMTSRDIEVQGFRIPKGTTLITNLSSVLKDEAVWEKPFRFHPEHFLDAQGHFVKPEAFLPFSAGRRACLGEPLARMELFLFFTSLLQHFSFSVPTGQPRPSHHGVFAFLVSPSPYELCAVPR

[26] = Drug level in feces of Sprague-Dawley rat treated with [14C]PF-00734200 at 5 mg/kg, po administered as single dose by LC-MS/MS method; assay type: ADME, organism-based; set-up: dose 5 mg/kg, route oral; settings: in vivo

Row | Retention_time [16] [min] | Drug uptake [17] [%] | Drug uptake [18] [%] | Drug uptake (Rattus norvegicus) [%] | Drug uptake (Plasma [19]) [%] | Drug uptake (Canis familiaris) [%] | Drug uptake (Plasma [20]) [%] | Drug uptake [22] [%] | Drug uptake (Homo sapiens [23]) [%] | Drug uptake [25] [%] | Drug uptake [26] [%] | Compound | also measured
1 |  |  |  |  |  |  |  |  |  |  |  | O=C([C@@H]1C[C@H](N2CCN([14c]3ncccn3)CC2)CN1)N1CCC(F)(F)C1 | Drug metabolism [1]: metabolite_not_detected; dose excreted [2]: 66.7%; Drug metabolism [3]: metabolite_not_detected; Cmax (Homo sapiens [4]): 274 ng.Eq/ml; AUC (Homo sapiens [5]): 2850 ng.Eq.hr/ml; dose excreted [6]: 16.8%; dose excreted [7]: 30.8%; dose excreted [8]: 10.4%; dose excreted [9]: 97.1%; dose excreted [10]: 76.8%; dose excreted [11]: 92.2%; dose excreted [12]: 66%; dose excreted [13]: 62.1%; AUC (Homo sapiens [14]): 2490 ng.Eq.hr/ml; dose excreted [15]: 87.2%
2 | 26 | 0.6 |  |  |  |  |  |  |  |  |  | NC(=O)N1C[C@@H](N2CCN(c3ncc(O)cn3)CC2)C[C@H]1C(=O)N1CCC(F)(F)C1 | 
3 | 14.3 | 1 | 2.9 | 2.9 | 0.4 | 1 | 4.7 |  |  |  |  | O=C(O)[C@H]1O[C@@H](Oc2cnc(N3CCN([C@@H]4CN[C@H](C(=O)N5CCC(F)(F)C5)C4)CC3)nc2)[C@H](O)[C@@H](O)[C@@H]1O | Drug uptake [21]: 50.4%
4 | 25.5 | 30.1 | 7.3 | 39.6 | 13.7 | 39.1 | 2.7 | 17.9 | 20.6 | 2.7 | 32.3 | O=C([C@@H]1C[C@H](N2CCN(c3ncc(O)cn3)CC2)CN1)N1CCC(F)(F)C1 | Drug uptake (Serum): 4%; Drug uptake [24]: 9%; Drug metabolism (Cytochrome P450 3A4): metabolite_detected; Drug metabolism (Cytochrome P450 2D6): metabolite_detected
5 | 28.2 | 1.6 |  |  | 1.5 |  |  | 6 | 6 |  |  | O=C(O)[C@H]1O[C@@H](OC(=O)N2C[C@@H](N3CCN(c4ncccn4)CC3)C[C@H]2C(=O)N2CCC(F)(F)C2)[C@H](O)[C@@H](O)[C@@H]1O | Drug uptake (Serum): 1.2%
6 | 20.1 |  |  | 0.1 |  |  |  | 0.1 | 0.1 |  | 0.1 | N=C(N)N1CCN([C@H]2C[C@@H](C(=O)N3CCC(F)(F)C3)N(C=O)C2)CC1 | 
7 | 3 | 1.2 | 3.1 | 20.9 | 0.8 | 5.8 | 2.6 |  | 3 | 3 | 17.8 | N=C(N)N1CCN([C@@H]2CN[C@H](C(=O)N3CCC(F)(F)C3)C2)CC1 | Drug uptake [24]: 4.6%; Drug uptake [21]: 7.3%
8 | 5.6 | 2.5 | 3.2 | 5.5 | 1 | 2.5 | 8.4 | 1.1 | 2.3 | 1.2 | 2.3 | O=C(O)[C@@H]1C[C@H](N2CCN(c3ncccn3)CC2)CN1 | 
